According to US8513232B2, “Substituted spirocyclic piperidine derivatives as histamine-3 (H3) receptor ligands” (Cephalon, Inc., priority 2008, dated 2013):
Counter-ions that a name gives are not always drawn. Like-named read-outs stand apart in the source and are kept apart here. One block for each compound: values may come before it.

Assays:
human H3 receptor = target: T1, human H3 receptor (Homo sapiens, UniProt Q9Y5N1); assay: Human H3 radioligand binding ([3H]-N-alpha-methylhistamine, SPA)
T1 construct: expressed in transfected cells
T1 sequence (Q9Y5N1 whole entry): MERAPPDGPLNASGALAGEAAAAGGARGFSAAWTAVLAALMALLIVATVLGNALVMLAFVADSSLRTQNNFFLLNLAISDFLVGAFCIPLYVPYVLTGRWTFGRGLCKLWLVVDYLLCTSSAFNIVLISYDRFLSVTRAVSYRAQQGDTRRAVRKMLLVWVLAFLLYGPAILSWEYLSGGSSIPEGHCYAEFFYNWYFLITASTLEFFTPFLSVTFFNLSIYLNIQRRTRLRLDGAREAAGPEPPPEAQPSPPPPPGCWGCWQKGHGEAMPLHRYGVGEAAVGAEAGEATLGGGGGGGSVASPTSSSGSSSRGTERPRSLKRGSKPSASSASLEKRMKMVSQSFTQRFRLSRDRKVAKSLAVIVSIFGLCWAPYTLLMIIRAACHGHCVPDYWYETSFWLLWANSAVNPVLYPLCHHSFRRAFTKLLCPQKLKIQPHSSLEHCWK
Description: (§1) Methods: CHO cells stably expressing the human H3 receptor (GenBank: NM_007232) were harvested and cell pellets were frozen (−80° C.). Cell pellets were resuspended in 5 mM Tris-HCl, pH 7.5 with […] and a cocktail of protease inhibitors (Complete Protease Inhibitior Tablets, Roche Diagnostics). Cells were disrupted using a polytron cell homogenizer and the suspension was centrifuged at 1000×g for 10 minutes at 4° C. The pellet was discarded and the supernatant centrifuged at 40,000×g for 30 min at 4° C. This membrane pellet was washed in membrane buffer containing 50 mM Tris-HCl, pH 7.5 with 0.6 mM EDTA, 5 mM MgCl2 and protease inhibitors, recentrifuged as above and the final pellet resuspended in membrane buffer plus 250 mM sucrose and frozen at −80° C.
(§2) Radioligand Binding. Membranes were resuspended in 50 mM Tris HCl (pH 7.4), 5 mM MgCl2, 0.1% BSA. The membrane suspensions (10 μg protein per well) were incubated in a 96 well microtiter plate with [^3H]-N-alpha-methylhistamine (approximately 1 nM final concentration), test compounds at various concentrations (0.01 nM-30 μM) and scintillation proximity beads (Perkin Elmer, FlashBlueGPCR Scintillating Beads) in a final volume of 80 μl for 4 hours at room temperature, protected from light. Non-specific binding was determined in the presence of 10 μM clobenpropit. Radioligand bound to receptor, and therefore in proximity to the scintillation beads, was measured using a MicroBeta scintillation counter.

[1] = target: T2, rat histamine H3 receptor (Rattus norvegicus, UniProt Q9QYN8); assay: Rat H3 radioligand binding ([3H]-N-alpha-methylhistamine, SPA)
T2 construct: encoding the entire 445-amino-acid rat histamine H3 receptor; expressed in transfected cells; membrane preparation
T2 sequence (Q9QYN8 whole entry): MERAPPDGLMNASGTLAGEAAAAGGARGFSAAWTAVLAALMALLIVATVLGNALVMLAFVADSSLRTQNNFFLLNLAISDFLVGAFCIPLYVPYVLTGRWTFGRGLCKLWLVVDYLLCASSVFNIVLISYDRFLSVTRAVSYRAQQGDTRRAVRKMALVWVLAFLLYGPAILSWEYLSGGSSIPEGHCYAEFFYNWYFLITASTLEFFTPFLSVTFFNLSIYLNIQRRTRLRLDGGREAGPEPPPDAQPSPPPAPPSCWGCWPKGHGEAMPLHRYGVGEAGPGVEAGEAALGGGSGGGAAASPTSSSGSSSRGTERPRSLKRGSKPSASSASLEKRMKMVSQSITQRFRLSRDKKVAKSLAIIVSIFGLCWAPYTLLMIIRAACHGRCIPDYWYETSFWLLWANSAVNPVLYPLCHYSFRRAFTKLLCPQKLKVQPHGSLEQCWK
Source text: as §1, with “Cell line development and membrane preparation. The rat” for “Methods: CHO cells stably expressing the human”, “cDNA was PCR amplified from reverse-transcribed RNA pooled from rat thalamus, hypothalamus, striatum and prefrontal cortex with a sequence corresponding to by #338-1672 of Genbank file #NM_053506, encoding the entire 445-amino-acid rat histamine H3 receptor. This was engineered into the pIRES-neo3 mammalian expression vector, which was stably transfected into the CHO-A3 cell line (Euroscreen, Belgium), followed by clonal selection by limiting dilution. Cells” for “(GenBank: NM_007232)”
as §2

[2] = Table A, human H3 binding, read-out: Human Ki
[3] = Table A, rat H3 binding, read-out: Rat Ki
[4] = Human H3 binding, Table B, Examples 136-362, read-out: hum H3 binding Ki
[5] = Rat H3 binding, Table B, Examples 136-362, read-out: rat H3 binding Ki
[6] = Table C, human H3 binding, read-out: Human H3 Ki
[7] = Table C, rat H3 binding, read-out: Rat H3 Ki

- melting point: 225 to 227 °C
SMILES: Cc1nc(C)c(-c2ccc3c(c2)COC2(CCN(C4CCC4)CC2)O3)s1 (as salt: HCl) [Example 70]

- melting point: 240 to 245 °C
SMILES: c1ccc(Oc2ccc3c(c2)COC2(CCN(C4CCC4)CC2)O3)cc1 (as salt: HCl) [Example 131]

- melting point: 182 to 190 °C
SMILES: CC(C)Cn1cc(-c2ccc3c(c2)COC2(CCN(C4CCC4)CC2)O3)ccc1=O (as salt: HCl) [Example 562]

- Ki (human H3 receptor; [2]): < 200 nM
- Ki [1, 3]: < 200 nM
- melting point: 150 to 152 °C
SMILES: c1cc(-c2ccc3c(c2)COC2(CCN(C4CCC4)CC2)O3)co1 [Example 5]

- Ki (human H3 receptor; [2]): < 200 nM
- Ki [1, 3]: < 200 nM
SMILES: OCc1ccc(-c2ccc3c(c2)CCC2(CCN(C4CCC4)CC2)O3)cc1 [Example 117]

- Ki (human H3 receptor; [2]): < 200 nM
- Ki [1, 3]: < 200 nM
SMILES: Fc1ncccc1-c1ccc2c(c1)CCC1(CCN(C3CCC3)CC1)O2 [Example 118]

- Ki (human H3 receptor; [4]): < 200 nM
- Ki [1, 5]: < 200 nM
SMILES: c1cnc(-c2ccc3c(c2)CCC2(CCN(C4CCC4)CC2)O3)cn1 [Example 145]

- Ki (human H3 receptor; [4]): < 200 nM
- Ki [1, 5]: < 200 nM
SMILES: O=C(Nc1ccc2c(c1)COC1(CCN(C3CCC3)CC1)O2)Nc1ccccc1Cl [Example 185]

- Ki (human H3 receptor; [4]): < 200 nM
- Ki [1, 5]: < 200 nM
SMILES: COCCN(C)C(=O)c1ccc(-c2ccc3c(c2)COC2(CCN(C4CCC4)CC2)O3)cc1F [Example 300]

- Ki (human H3 receptor; [4]): < 200 nM
- Ki [1, 5]: < 200 nM
SMILES: O=C(O)c1c(F)cc(-c2ccc3c(c2)CCC2(CCN(C4CCC4)CC2)O3)cc1F [Example 318]

- Ki (human H3 receptor; [4]): < 200 nM
- Ki [1, 5]: 200 to 1000 nM
SMILES: Cc1cc(-c2ccc3c(c2)CCC2(CCN(C4CCC4)CC2)O3)ccc1C(=O)O [Example 327]

- Ki (human H3 receptor; [4]): < 200 nM
- Ki [1, 5]: < 200 nM
SMILES: NC(=O)c1c(F)cc(-c2ccc3c(c2)CCC2(CCN(C4CCC4)CC2)O3)cc1F [Example 340]

- Ki (human H3 receptor; [6]): < 200 nM
- Ki [1, 7]: < 200 nM
SMILES: NC(=O)c1ccc(N2CCN(c3ccc4c(c3)CCC3(CCN(C5CCC5)CC3)O4)CC2)nc1 [Example 379]

Further lines, the compound ahead of its results:

SMILES: c1cc2c(cc1OC1CCNCC1)CCC1(CCN(C3CCC3)CC1)O2 (as salt: HCl) [Example 425]
- melting point: > 320 °C

SMILES: CC(C)CN1CC(c2ccc3c(c2)COC2(CCN(C4CCC4)CC2)O3)CCC1=O (stereo not drawn) (as salt: HCl) [Example 564]
- melting point: 98 to 103 °C

SMILES: Fc1cncc(-c2ccc3c(c2)COC2(CCN(C4CCC4)CC2)O3)c1 [Example 4]
- Ki (human H3 receptor; [2]): < 200 nM
- Ki [1, 3]: < 200 nM
- melting point: 140 to 145 °C

SMILES: c1ccc(Oc2ccc3c(c2)COC2(CCN(C4CCC4)CC2)O3)cc1 [Example 131]
- Ki (human H3 receptor; [2]): 200 to 1000 nM
- Ki [1, 3]: < 200 nM

SMILES: N#Cc1ccc(Oc2ccc3c(c2)COC2(CCN(C4CCC4)CC2)O3)cc1 [Example 132]
- Ki (human H3 receptor; [2]): < 200 nM
- Ki [1, 3]: < 200 nM

SMILES: CNC(=O)c1ccc(-c2ccc3c(c2)COC2(CCN(C4CCC4)CC2)O3)cc1C#N [Example 179]
- Ki (human H3 receptor; [4]): < 200 nM
- Ki [1, 5]: < 200 nM

SMILES: O=C(c1ccc(-c2ccc3c(c2)CCC2(CCN(C4CCC4)CC2)O3)cn1)N1CC[C@H](O)C1 [Example 213]
- Ki (human H3 receptor; [4]): < 200 nM
- Ki [1, 5]: < 200 nM

SMILES: c1cc2c(cc1N1CCOCC1)COC1(CCN(C3CCC3)CC1)O2 [Example 214]
- Ki (human H3 receptor; [4]): < 200 nM
- Ki [1, 5]: < 200 nM

SMILES: COCCN(C)C(=O)c1ccc(-c2ccc3c(c2)CCC2(CCN(C4CCC4)CC2)O3)cc1F [Example 294]
- Ki (human H3 receptor; [4]): < 200 nM
- Ki [1, 5]: < 200 nM

SMILES: c1cnc(COc2ccc3c(c2)CCC2(CCN(C4CCC4)CC2)O3)nc1 [Example 317]
- Ki (human H3 receptor; [4]): < 200 nM
- Ki [1, 5]: < 200 nM

SMILES: O=C(O)c1c(F)cc(-c2ccc3c(c2)COC2(CCN(C4CCC4)CC2)O3)cc1F [Example 334]
- Ki (human H3 receptor; [4]): 200 to 1000 nM
- Ki ([1]; Rat H3 binding, Table B, given as numeric bound instead of class symbol, read-out: rat H3 binding Ki): > 300 nM

SMILES: COC1CCN(c2ccc3c(c2)CCC2(CCN(C4CCC4)CC2)O3)CC1 [Example 380]
- Ki (human H3 receptor; [6]): < 200 nM
- Ki [1, 7]: < 200 nM

SMILES: CS(=O)(=O)N1CCC(Oc2ccc3c(c2)CCC2(CCN(C4CCC4)CC2)O3)CC1 [Example 408]
- Ki (human H3 receptor; [6]): < 200 nM
- Ki [1, 7]: < 200 nM

SMILES: CN(C)C(=O)c1ccc(N2CCN(c3ccc4c(c3)CCC3(CCN(C5CCC5)CC3)O4)CC2)nc1 [Example 410]
- Ki (human H3 receptor; [6]): < 200 nM
- Ki [1, 7]: < 200 nM
